{"source": "paper PMC9268515", "about": "“UGT1A1 and UGT1A9 Are Responsible for Phase II Metabolism of Tectorigenin and Irigenin In Vitro” (Molecules, 2022)", "assay_type_in_all_cases": "in vitro ADME", "key": {"UGT1A1": {"biological_target": "T1, UGT1A1 (Homo sapiens, UniProt P22309)", "T1 construct": "purchased BD Biosciences (Woburn, MA, USA)", "T1 sequence (P22309 26-533)": "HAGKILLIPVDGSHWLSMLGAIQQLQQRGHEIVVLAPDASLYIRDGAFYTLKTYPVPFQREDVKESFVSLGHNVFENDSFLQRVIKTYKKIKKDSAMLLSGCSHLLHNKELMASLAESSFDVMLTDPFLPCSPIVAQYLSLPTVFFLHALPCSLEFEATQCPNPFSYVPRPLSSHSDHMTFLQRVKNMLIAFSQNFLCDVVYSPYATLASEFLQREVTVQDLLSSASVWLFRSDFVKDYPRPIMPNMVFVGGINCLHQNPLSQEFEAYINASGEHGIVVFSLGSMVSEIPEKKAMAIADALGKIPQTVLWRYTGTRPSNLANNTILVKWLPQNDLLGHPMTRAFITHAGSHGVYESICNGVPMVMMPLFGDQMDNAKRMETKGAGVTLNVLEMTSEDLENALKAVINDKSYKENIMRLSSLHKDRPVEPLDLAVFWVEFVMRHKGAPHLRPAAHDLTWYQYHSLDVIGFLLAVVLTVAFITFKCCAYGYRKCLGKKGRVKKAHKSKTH", "test": "Recombinant UGT reaction screening and enzyme kinetics, UGT1A1", "settings": "recombinant UGT1A1 screening", "description": "(§1) UGT reaction screening of tectorigenin and irigenin was conducted using nine commercially available human UGTs (UGT1A1/1A3/1A4/1A6/1A9/2B4/2B7/2B15/2B17). Furthermore, we studied the enzymatic kinetic characteristics of tectorigenin and irigenin using UGT1A1 and UGT1A9. Six concentrations of tectorigenin and irigenin (1, 3, 10, 30, 100, and 300 μM) were incubated in triplicate in order to obtain the enzyme kinetic characteristics of tectorigenin and irigenin glucuronide.\nFor both HLMs and UGTs, metabolic kinetic analysis was performed by fitting the data to the Michaelis-Menten model. The Km and Vmax of enzymes were calculated as follows:(3) V=Vmax×[S]/Km+[S], where [S] is the substrate concentration. All results were shown as the mean ± standard error (SE). Differences among different groups were compared using one-way analysis of variance. A p-value < 0.05 was considered statistically significant."}, "UGT1A3": {"biological_target": "T2, UGT1A3 (Homo sapiens, UniProt P35503)", "T2 construct": "purchased BD Biosciences (Woburn, MA, USA)", "T2 sequence (P35503 29-534)": "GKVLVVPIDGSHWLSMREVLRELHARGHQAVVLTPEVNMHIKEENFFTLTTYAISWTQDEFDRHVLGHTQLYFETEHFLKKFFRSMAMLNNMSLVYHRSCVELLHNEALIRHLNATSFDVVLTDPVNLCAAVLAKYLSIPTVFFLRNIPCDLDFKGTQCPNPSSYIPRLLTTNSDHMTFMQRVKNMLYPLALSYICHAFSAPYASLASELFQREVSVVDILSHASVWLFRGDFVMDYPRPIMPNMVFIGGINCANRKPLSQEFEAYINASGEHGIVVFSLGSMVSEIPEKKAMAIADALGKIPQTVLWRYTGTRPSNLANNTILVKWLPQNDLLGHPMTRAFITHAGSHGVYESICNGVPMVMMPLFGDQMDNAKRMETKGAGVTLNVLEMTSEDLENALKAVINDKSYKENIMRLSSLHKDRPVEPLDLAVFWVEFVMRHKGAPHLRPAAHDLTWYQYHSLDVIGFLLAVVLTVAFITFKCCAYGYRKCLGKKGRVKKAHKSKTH", "test": "Recombinant UGT reaction screening, UGT1A3", "description": "as §1"}, "UGT1A6": {"biological_target": "T3, UGT1A6 (Homo sapiens, UniProt P19224)", "T3 construct": "purchased BD Biosciences (Woburn, MA, USA)", "T3 sequence (P19224 27-532)": "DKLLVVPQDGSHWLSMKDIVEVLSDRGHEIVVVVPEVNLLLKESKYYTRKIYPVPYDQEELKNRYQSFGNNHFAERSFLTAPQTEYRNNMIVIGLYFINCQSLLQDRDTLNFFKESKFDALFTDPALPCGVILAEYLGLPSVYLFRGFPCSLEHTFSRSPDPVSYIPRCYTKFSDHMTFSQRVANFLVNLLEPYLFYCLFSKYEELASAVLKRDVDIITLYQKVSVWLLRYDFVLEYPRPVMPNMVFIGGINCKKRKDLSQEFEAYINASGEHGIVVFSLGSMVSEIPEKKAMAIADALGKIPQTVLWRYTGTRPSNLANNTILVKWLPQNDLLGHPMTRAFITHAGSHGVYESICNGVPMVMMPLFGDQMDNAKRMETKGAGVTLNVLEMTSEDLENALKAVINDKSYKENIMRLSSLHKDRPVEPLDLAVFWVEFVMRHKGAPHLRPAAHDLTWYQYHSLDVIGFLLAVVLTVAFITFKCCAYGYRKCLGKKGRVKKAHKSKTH", "test": "Recombinant UGT reaction screening, UGT1A6", "description": "as §1"}, "UGT2B7": {"biological_target": "T4, UGT2B7 (Homo sapiens, UniProt P16662)", "T4 construct": "purchased BD Biosciences (Woburn, MA, USA)", "T4 sequence (P16662 24-529)": "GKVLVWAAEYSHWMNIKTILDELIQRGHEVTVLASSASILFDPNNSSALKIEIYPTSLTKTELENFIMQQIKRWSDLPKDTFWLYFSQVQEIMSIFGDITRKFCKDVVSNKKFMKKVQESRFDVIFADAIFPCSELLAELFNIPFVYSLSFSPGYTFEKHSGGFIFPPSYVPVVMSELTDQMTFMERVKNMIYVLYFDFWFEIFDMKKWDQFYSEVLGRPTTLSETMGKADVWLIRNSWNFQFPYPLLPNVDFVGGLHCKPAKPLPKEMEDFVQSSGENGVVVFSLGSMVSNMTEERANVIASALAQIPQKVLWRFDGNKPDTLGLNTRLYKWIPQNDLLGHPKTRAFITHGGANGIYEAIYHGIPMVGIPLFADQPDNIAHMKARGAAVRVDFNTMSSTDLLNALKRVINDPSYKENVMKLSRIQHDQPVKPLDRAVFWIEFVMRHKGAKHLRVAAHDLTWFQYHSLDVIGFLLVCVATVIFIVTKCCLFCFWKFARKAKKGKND", "test": "Recombinant UGT reaction screening, UGT2B7", "description": "as §1"}, "UGT2B4": {"biological_target": "T5, UGT2B4 (Homo sapiens, UniProt P06133)", "T5 construct": "purchased BD Biosciences (Woburn, MA, USA)", "T5 sequence (P06133 24-528)": "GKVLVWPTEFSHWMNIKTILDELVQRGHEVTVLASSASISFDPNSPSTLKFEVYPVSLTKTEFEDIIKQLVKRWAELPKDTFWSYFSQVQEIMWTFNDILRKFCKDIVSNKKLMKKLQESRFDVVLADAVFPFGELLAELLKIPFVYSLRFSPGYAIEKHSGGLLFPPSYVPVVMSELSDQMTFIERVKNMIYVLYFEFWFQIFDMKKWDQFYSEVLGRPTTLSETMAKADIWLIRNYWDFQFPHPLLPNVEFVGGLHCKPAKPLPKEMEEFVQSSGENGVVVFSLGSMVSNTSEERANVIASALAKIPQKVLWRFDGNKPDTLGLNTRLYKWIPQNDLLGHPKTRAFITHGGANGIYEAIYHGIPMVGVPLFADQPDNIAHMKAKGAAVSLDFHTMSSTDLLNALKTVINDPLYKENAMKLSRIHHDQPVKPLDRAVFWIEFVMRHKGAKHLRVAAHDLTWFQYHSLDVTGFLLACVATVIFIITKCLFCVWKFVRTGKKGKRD", "test": "Recombinant UGT reaction screening, UGT2B4", "description": "as §1"}}, "data": [{"smiles": "COc1c(O)cc2occ(-c3ccc(O)cc3)c(=O)c2c1O", "note": "[Tectorigenin, 5,7,4′-trihydroxyl-6-methoxyl isoflavone]", "values": [{"measurement": "Activity in glucuronidation of tectorigenin", "setting": "UGT1A1", "value": "highest activity"}, {"measurement": "Activity in glucuronidation of tectorigenin", "setting": "UGT1A3", "value": "some activity"}, {"measurement": "Activity in glucuronidation of tectorigenin", "setting": "UGT1A6", "value": "some activity"}, {"measurement": "Activity in glucuronidation of tectorigenin", "setting": "UGT2B7", "value": "some activity"}, {"measurement": "Activity in glucuronidation of tectorigenin", "setting": "UGT2B4", "value": "none"}]}]}
